From publication PMC6045618, “Novel natural killer cell-mediated cancer immunotherapeutic activity of anisomycin against hepatocellular carcinoma cells” (Scientific Reports, 2018)

What was measured:
SNU449 cells [1] = assay: Annexin V / 7-ADD apoptosis flow cytometry, SNU449; assay type: cell-based; settings: 48 h
Procedure: (§1) To analyse apoptotic cells, we stained cells with anti-human CD56-allophycocyanin monoclonal antibodies, 7ADD, and Annexin V (BioLegend, San Diego, CA, USA) following the protocol provided by the manufacturer. Briefly, we stained cells with anti-human CD56-allophycocyanin monoclonal antibodies on ice for 10 min, washed cells with an appropriate volume of chilled Annexin V binding buffer (BioLegend), and resuspended cells in chilled Annexin V binding buffer (BioLegend) in the presence of Annexin V and 7ADD. The cells were incubated on ice for 30 min, washed with chilled Annexin V binding buffer, and analysed. Staining data were collected using a FACSCanto II Cytometer (BD Biosciences).

[2] = tested on: cleaved caspase-3, cleaved PARP; assay: Immunoblot of cleaved caspase-3 and cleaved PARP in sorted HepG2 cells; assay type: cell-based; settings: HepG2, 0.2 μM 48 h
Procedure: HepG2 cells were cultured in the presence or absence of 0.2 µM anisomycin for 2 days and harvested for cell counts. Then, 1 × 10^7 HepG2 cells were cocultured with 1 × 10^7 NK cells for 2 h and harvested by centrifugation at 1,000 rpm for 5 min. Cells were stained with anti-human CD56 monoclonal antibodies (BioLegend), washed, and resuspended in PBS containing HBSS supplemented with 4% FBS (Gibco). CD56-negative HepG2 cells were isolated to nearly 100% purity using an Aria cytometer (BD Biosciences).
Cells were suspended in modified RIPA lysis buffer (150 mM NaCl, 1 mM EDTA, 1% Triton X-100, 1% NP-40, 0.5% sodium deoxycholate, 0.1% sodium dodecyl sulphate [SDS], and 50 mM Tris-HCl [pH 7.4]) containing a protease inhibitor cocktail (Roche, Mannheim, Germany) and phosphatase inhibitors (1 mM sodium fluoride and 2 mM sodium orthovanadate) on ice for 30 min and centrifuged at 15,000 × g for 30 min to collect whole-cell lysates. Proteins (10–20 µg) were then separated by SDS-polyacrylamide gel electrophoresis on 8‒12% gels and transferred to polyvinylidene difluoride membranes (Millipore, Bedford, MA, USA). Western blotting was performed with primary antibodies against caspase3, PARP, and β-actin (Cell Signaling Technology) and peroxidase-conjugated anti-mouse or anti-rabbit secondary antibodies. Proteins were visualized with Enhanced Chemiluminescence Plus reagents (Amersham Biosciences, Piscataway, NJ, USA).

SNU449 cells [3] = assay: EZ-Cytox Enhanced cell viability assay, SNU449; assay type: cell-based; settings: 48 h exposure, read-out: IC50, cell cytotoxicity / proliferation inhibition
Procedure: (§2) HepG2 cells were purchased from the American Type Culture Collection (ATCC, Manassas, VA, USA), and Huh7 cells and SNU449 cells were purchased from the Korean Cell Line Bank (Seoul, Korea). Cells were cultured according to the suppliers’ instructions. HepG2 cells were cultured in Eagle’s minimum essential medium (ATCC) containing 10% FBS (Life Technologies), 2 mM L-glutamine, and penicillin-streptomycin (Life Technologies) at 37 °C in 5% CO2. Huh7 and SNU449 cells were cultured in RPMI1640 (Life Technologies) containing 10% FBS (Life Technologies), 2 mM L-glutamine, and penicillin-streptomycin (Life Technologies) at 37 °C in 5% CO2. Anisomycin was purchased from Sigma-Aldrich (St. Louis, MO, USA) and dissolved at a concentration of 20 mg/mL in 100% DMSO as a stock solution. The stock solution was stored at −20 °C and diluted in medium before each experiment. […]
(§3) Cell proliferation was assessed using an EZ-Cytox Enhanced cell viability assay kit from ITSBIO (Seoul, Republic of Korea). […] At the end of the incubation, the absorbance in each well was measured at 450 nm using a microplate reader. The relative cell viability (%) was calculated using the equation OD^T/OD^C × 100% (where OD^T represents the absorbance of the treatment group, and OD^c represents the absorbance of the control group). […]

HepG2 carcinoma = assay: HepG2 tumour xenograft in NOD-SCID mice with or without human primary NK cells; assay type: in vivo, mouse; settings: 10 mg/kg i.p.
Excerpt: NOD.CB17-Prkdc^scid/NCrCrl mice were purchased from Charles River Laboratories, Inc. (Wilmington, MA, USA). We used 6-8-week-old female mice in all experiments; these mice were housed in a pathogen-free animal facility. All animal experiments were approved by the Institutional Animal Use and Care Committee of the Korea Research Institute of Bioscience and Biotechnology and performed in accordance with the Guide for the Care and Use of Laboratory Animals published by the US National Institutes of Health.
Six-week-old female NOD.CB17-Prkdc^scid/NCrCrl mice were purchased from Charles River Laboratories, Inc. Xenograft models were established by subcutaneous injection of 1 × 10^6 HepG2 cells into the right flanks of the mice. Five days after inoculation, the mice were randomly separated into groups of four. Anisomycin (10 mg/kg) was administered from day 0 to 5 and from day 15 to 20 after initiation of anisomycin treatment via the intraperitoneal (i.p) route. NK cells (5 × 10^6 cells/mouse) were transferred into mice two times on days 6 and 11 during the treatment pause period. Tumours were measured every 3 days using callipers, and their volumes were calculated according to the following formula: volume (mm^3) = (d^2 × D)/2, where d and D represent the shortest and longest tumour diameters, respectively.

HepG2 cells [4] = assay: Apoptosis of anisomycin-pre-treated HepG2 cells cocultured with NK cells (flow cytometry); assay type: cell-based, human; settings: HepG2 pre-treated 0.2 μM 48 h, then NK cells 4 h, CD56-negative gate
Excerpt: Peripheral blood from healthy donors was obtained from the Red Cross Blood Center. We followed the guidelines of the Red Cross, and all methods and protocols involving the use of human peripheral blood were approved by the Institutional Review Board of the Red Cross. Based on the Red Cross guidelines, informed consent for study participation was obtained, and donor information was not provided. NK cells were isolated from whole blood to more than 95% purity by negative selection using a RosetteSep Human NK Cell Enrichment Cocktail (StemCell Technologies, Vancouver, Canada) according to the manufacturer’s protocol. The isolated NK cells were washed in HBSS plus 4% foetal bovine serum (FBS; Life Technologies, Carlsbad, CA, USA) and resuspended in MEM-α (Life Technologies) containing 20% FBS (Life Technologies) and penicillin-streptomycin (Life Technologies) at 37 °C in 5% CO2.
To analyse apoptotic cells, we stained cells with anti-human CD56-allophycocyanin monoclonal antibodies, 7ADD, and Annexin V (BioLegend, San Diego, CA, USA) following the protocol provided by the manufacturer. […] The cells were incubated on ice for 30 min, washed with chilled Annexin V binding buffer, and analysed. […]

[5] = tested on: MHC-I molecules (HLA-A, -B, and -C); assay: Flow cytometry of MHC-I (HLA-A, -B, -C) on HCC cells; assay type: cell-based; settings: 0.2 μM 48 h, HepG2, SNU449, Huh7 cells
Huh7 cells [6] = assay: Annexin V / 7-ADD apoptosis flow cytometry, Huh7; assay type: cell-based; settings: 48 h
Procedure: as §1

[7] = tested on: HepG2, Huh7, and SNU449 cells; assay: Light microscopy of cell density; assay type: cell-based; settings: 0.2 μM, 2 days
Procedure: HepG2 cells were purchased from the American Type Culture Collection (ATCC, Manassas, VA, USA), and Huh7 cells and SNU449 cells were purchased from the Korean Cell Line Bank (Seoul, Korea). Cells were cultured according to the suppliers’ instructions. HepG2 cells were cultured in Eagle’s minimum essential medium (ATCC) containing 10% FBS (Life Technologies), 2 mM L-glutamine, and penicillin-streptomycin (Life Technologies) at 37 °C in 5% CO2. Huh7 and SNU449 cells were cultured in RPMI1640 (Life Technologies) containing 10% FBS (Life Technologies), 2 mM L-glutamine, and penicillin-streptomycin (Life Technologies) at 37 °C in 5% CO2. Anisomycin was purchased from Sigma-Aldrich (St. Louis, MO, USA) and dissolved at a concentration of 20 mg/mL in 100% DMSO as a stock solution. The stock solution was stored at −20 °C and diluted in medium before each experiment. […] Antibodies against caspase3, PARP, and β-actin were purchased from Cell Signaling Technology (Danvers, MA, USA).

HepG2 cells [8] = assay: Annexin V / 7-ADD apoptosis flow cytometry, HepG2; assay type: cell-based; settings: 48 h
Procedure: as §1

CD58 = assay: Western blot of CD58 in HCC cells; assay type: cell-based; settings: 0.2 μM, HepG2, Huh7, SNU449 cells
HepG2 cells [9] = assay: EZ-Cytox Enhanced cell viability assay, HepG2; assay type: cell-based; settings: 48 h exposure, read-out: IC50, cell cytotoxicity / proliferation inhibition
Procedure: as §2, §3

Huh7 cells [10] = assay: EZ-Cytox Enhanced cell viability assay, Huh7; assay type: cell-based; settings: 48 h exposure, read-out: IC50, cell cytotoxicity / proliferation inhibition
Procedure: as §2, §3

Which results are given for `COc1ccc(C[C@H]2NC[C@H](O)[C@H]2OC(C)=O)cc1` [anisomycin]?
Annexin V and 7-ADD double-positive cells (apoptotic cells) (SNU449 cells [1]; SNU449, 0.1 μM): 2.24%; Annexin V and 7-ADD double-positive cells (apoptotic cells) (SNU449 cells [1]; SNU449, 0.2 μM): 4.94%; Cleaved PARP ([2]; anisomycin and NK cells): substantially increased; Cleaved caspase-3 protein after exposure to NK cells ([2]; then NK cells 2 h): synergistically increased; Level of the cleaved form of caspase-3 ([2]; with or without NK cell treatment): significantly increased; IC50 (SNU449 cells [3]): 138 nM; Tumour suppression in the presence of human primary NK cells (HepG2 carcinoma; days 0 to 5 and 15 to 20, NK cells 5 × 10^6 cells/mouse on days 6 and 11): synergistically enhanced; Body weight loss and abnormal behaviours of treated mice (HepG2 carcinoma; days 0 to 5 and 15 to 20, NOD-SCID mice): did not show significant body weight loss or any abnormal behaviours; HepG2 tumour size in mice (HepG2 carcinoma; days 0 to 5 and 15 to 20, NOD-SCID mice, without NK cells): significantly reduced HepG2 tumour size; Annexin V and 7ADD double-positive cells (apoptotic cells) after coculture with NK cells (HepG2 cells [4]): 14.00%; MHC-I molecules (HLA-A, -B, -C) at the protein level [5]: significantly downregulated; Annexin V and 7-ADD double-positive cells (apoptotic cells) (Huh7 cells [6]; Huh7, 0.1 μM): 4.59%; Annexin V and 7-ADD double-positive cells (apoptotic cells) (Huh7 cells [6]; Huh7, 0.2 μM): 6.85%; Cell densities observed by light microscopy [7]: reduced the cell densities; Annexin V and 7-ADD double-positive cells (apoptotic cells) (HepG2 cells [8]; HepG2, 0.1 μM): 1.23%; Annexin V and 7-ADD double-positive cells (apoptotic cells) (HepG2 cells [8]; HepG2, 0.2 μM): 2.81%; Expression of CD58 (western blot) (CD58): increased the expression of CD58 in all three HCC cell lines; IC50 (HepG2 cells [9]): 82.2 nM; IC50 (Huh7 cells [10]): 118 nM
